≈ marks a conversion by molar mass, not a printed value.
Columns and labels:
[1] = kinetic solubility by nephelometry; type: physicochemical; conditions: phosphate buffer, 25 °C, pH 7.4, aqueous buffer, kinetic from dmso stock, phosphate buffer pH 7.4, 1% DMSO, mean of two measurements, range in brackets
Protocol: The kinetic solubility of test compounds was determined by nephelometry. Dilution series of test compounds in DMSO with eight to ten different concentrations were prepared. The dilutions were pipetted (2 µL) into the cavities of a 96 well plate (CorningTM UV-transparent flat-bottom microtiter plate; Corning Incorporated, Kennebunk, ME, USA). A phosphate buffer solution pH 7.4 (198 µL) was added, so that the DMSO concentration in the measured solutions was 1%. Three wells were filled with DMSO and phosphate buffer pH 7.4 (2:198) and measured as blank values. The 96 well plate prepared in this way was measured with the NEPHELOstar® Plus nephelometer (BMG Labtech GmbH, Ortenberg, Germany, software: Omega 5.11) at a temperature of 25 °C. Previously, the plate was shaken at 500 rpm for 10 s and the laser intensity was set to 80%. The beam focus was set to 2.50 mm. If the test substance is completely soluble, only a scattering close to the blank value is detected. As soon as a critical concentration is reached in which the kinetic solubility of the test compound is exceeded, solid particles precipitate. Undissolved particles in the sample scatter the laser beam. The intensity of the scattered light is determined, which is proportional to the number of particles in the solution. The blank values were determined and subtracted from the measured values of the test compounds. By measuring different concentrations of the test substances, different intensities of the scattered light, indicated as RNU (relative nephelometric units), were determined. Kick off curves were obtained by plotting concentrations against the RNU values. The point of intersection of the horizontal and of the ascending part of the kick-off curve indicated the kinetic solubility concentration.

Aurora-A = target: T1, Aurora-A (Homo sapiens, UniProt O14965); experiment: radiometric 33PanQinase protein kinase assay; type: biochemical; conditions: for IC50: radiometric assay, 1 µM ATP; for remaining activity at 10 µM: 10 µM compound, residual kinase activity
T1 construct: host or cells: Sf9 (baculovirus)
T1 sequence (O14965 1-403): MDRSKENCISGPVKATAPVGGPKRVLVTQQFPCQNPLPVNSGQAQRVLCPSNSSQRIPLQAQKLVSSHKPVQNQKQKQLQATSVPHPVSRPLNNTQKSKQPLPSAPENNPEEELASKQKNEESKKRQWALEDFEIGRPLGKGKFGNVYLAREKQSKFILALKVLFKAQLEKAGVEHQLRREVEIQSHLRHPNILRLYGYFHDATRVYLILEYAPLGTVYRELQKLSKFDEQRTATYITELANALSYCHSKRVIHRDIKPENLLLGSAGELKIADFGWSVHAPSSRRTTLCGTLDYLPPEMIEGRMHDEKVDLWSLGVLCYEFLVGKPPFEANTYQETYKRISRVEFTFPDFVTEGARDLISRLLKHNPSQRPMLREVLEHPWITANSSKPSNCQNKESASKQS
Protocol: (§1) The inhibitory activity of prototype 2a was determined in a panel of 24 tumor-relevant protein kinases using a radiometric assay. Only the kinases Aurora A, VEGF-R2 and VEGF-R3 were inhibited with single digit micromolar IC50 values (Table 2). Structural modifications were then implemented, particularly directed to improve inhibition of Aurora A. The so-designed congeners with small substituents at the aniline ring 2b–2n were examined for inhibition of Aurora A and of VEGF-R2, VEGF-R3 and Aurora B for comparison (Table 3).
(§2) The screening for protein kinase inhibition was performed with the radiometric ^33Panqinase activity assay at Reaction Biology Europe GmbH (Freiburg) using a robotic system (Beckmann Coulter/SagianRoboter) and 96-well plates (FlashPlates, Perkin/Elmer/NEN, Boston, MA, USA). In brief, the transfer of ^33P-phosphate into the substrate was measured with a microplate scintillation counter (Microbeta Trilux, Wallace). Protein kinases were expressed in Sf9 cells as recombinant glutathione S-transferase (GST) or polyhistidine (His)-tagged proteins in baculovirus. Isolation and purification of expressed kinases were performed with affinity chromatography by using GSH agarose (Sigma) or Ni-NTA agarose (Qiagen). The standard solution for each enzyme contained: 60 mM HEPES-NaOH (pH 7.5), 3 mM MgCl2, 3 µM sodium orthovanadate, 1.2 mM DTT, 50 µg/mL PEG20000 and 1 µM [γ-^33P]-ATP (approximately 5 × 10^5 cpm per well). In chronological order the reaction mixture was prepared: 20 µL standard solution, 5 µL ATP solution in water, 5 µL of the compound in 10% DMSO and 20 µL of enzyme/substrate mixture (50:50). Each kinase contained different substrates in different concentrations: 125 ng/50 µL Poly(Glu, Tyr)4:1 for 20 ng/50 µL IGF1-R, 25 ng/50 µL IGF1-R, 20 ng/50 µL EGF-R, 25 ng/50 µL EGF-R, 40 ng/50 µL EGF-R, 10 ng/50 µL EPHB4, 20 ng/50 µL EPHB4, 200 ng/50 µL ERBB2, 10 ng/50 µL SRC, 100 ng/50 µL FAK, 200 ng/50 µL FAK, 50 ng/50 µL VEGF-R2, 100 ng/50 µL VEGF-R3, 200 ng/50 µLTIE2; 250 ng/50 µL Poly(Glu, Tyr)4:1 for 200 ng/50 µL TIE2; 500 ng/50 µL tetra (LRRWSLG) for 50 ng/50 µL Aurora-A, 25 ng/50 µL PAK4, 25 ng/50 µL PDK1; 250 ng/50 µL tetra (LRRWSLG) for 50 ng/50 µL Aurora-B, 200 ng/50 µL Aurora-B; 125 ng/50 µL Histon H1 for 100 ng/50 µL CDK2/CycA; 250 ng/50 µL Rb-CTF for 50 ng/50 µL CDK/CycD1; 500 ng/50 µL Rb-CTF for 50 ng/50 µL CDK4/CycD1; 125 ng/50 µL Poly(ala, Glu, Lys, Tyr)6:2:5:1 for 25 ng/50 µL INS-R, 50 ng/50 µL PDGFR-beta, 100 ng/50 µL PDGFR-beta, 100 ng/50 µL FLT3, 150 ng/50 µL FLT3, 20 ng/50 µL MET, 50 ng/50 µL MET, 100 ng/50 µL MET; 250 ng/50 µL Casein for 200 ng/50 µL CK2-alpha1, 200 ng/50 µL PLK1; 1000 ng/50 µL Casein for 200 ng/50 µL PLK1, 200 ng/50 µL CK2-alpha1; 1000 ng/50 µLGSK3 (14–27) for 100 ng/50 µL AKT1; 125 ng/50 µL p53-CTM for 150 ng/50 µL CK2-alpha1, 200 ng/50 µLCK2-alpha1; 250 ng/50 µL MEK-KM for 20 ng/50 µL B-RAF-VE; autophosphorylation at ARK5, COT and SAK. After incubation (80 min, 30 °C) the reaction was stopped by adding 50 µL 2% (v/v) phosphoric acid to the reaction mixture. The microplate was washed twice with 200 µL 0.9% (v/v) saturated sodium chloride or water. The measured radioactivity, conditioned by the incorporation of [γ-^33P]-phosphate, is proportional to kinase activity. Furthermore, low control and high control were measured to determine the residual activity (%). As low controls, mixtures with substrate, but without enzyme were used to determine the unspecific binding of [γ-^33P]-phosphate to the well plate. Mixtures with enzyme, but without inhibitor were used as high controls to determine maximum enzyme activity. The IC50-values of the distinct compounds were calculated with Quattro Workflow V1.1.0.8 (Quattro Research GmbH, München, Germany). Dose response curves were generated by measurement of the residual activity of ten different inhibitor concentrations (0.1 mM, 30.0 µM, 10 µM, 3.0 µM, 1.0 µM, 0.3 µM, 0.1 µM, 30.0 nM, 10.0 nM and 3.0 nM). […]

VEGF-R2 = target: T2, VEGF-R2 (Homo sapiens, UniProt P35968); experiment: radiometric 33PanQinase protein kinase assay; type: biochemical; conditions: for remaining activity at 10 µM: 10 µM compound, residual kinase activity; for IC50: radiometric assay, 1 µM ATP
T2 construct: host or cells: Sf9 (baculovirus)
T2 sequence (P35968 20-1356): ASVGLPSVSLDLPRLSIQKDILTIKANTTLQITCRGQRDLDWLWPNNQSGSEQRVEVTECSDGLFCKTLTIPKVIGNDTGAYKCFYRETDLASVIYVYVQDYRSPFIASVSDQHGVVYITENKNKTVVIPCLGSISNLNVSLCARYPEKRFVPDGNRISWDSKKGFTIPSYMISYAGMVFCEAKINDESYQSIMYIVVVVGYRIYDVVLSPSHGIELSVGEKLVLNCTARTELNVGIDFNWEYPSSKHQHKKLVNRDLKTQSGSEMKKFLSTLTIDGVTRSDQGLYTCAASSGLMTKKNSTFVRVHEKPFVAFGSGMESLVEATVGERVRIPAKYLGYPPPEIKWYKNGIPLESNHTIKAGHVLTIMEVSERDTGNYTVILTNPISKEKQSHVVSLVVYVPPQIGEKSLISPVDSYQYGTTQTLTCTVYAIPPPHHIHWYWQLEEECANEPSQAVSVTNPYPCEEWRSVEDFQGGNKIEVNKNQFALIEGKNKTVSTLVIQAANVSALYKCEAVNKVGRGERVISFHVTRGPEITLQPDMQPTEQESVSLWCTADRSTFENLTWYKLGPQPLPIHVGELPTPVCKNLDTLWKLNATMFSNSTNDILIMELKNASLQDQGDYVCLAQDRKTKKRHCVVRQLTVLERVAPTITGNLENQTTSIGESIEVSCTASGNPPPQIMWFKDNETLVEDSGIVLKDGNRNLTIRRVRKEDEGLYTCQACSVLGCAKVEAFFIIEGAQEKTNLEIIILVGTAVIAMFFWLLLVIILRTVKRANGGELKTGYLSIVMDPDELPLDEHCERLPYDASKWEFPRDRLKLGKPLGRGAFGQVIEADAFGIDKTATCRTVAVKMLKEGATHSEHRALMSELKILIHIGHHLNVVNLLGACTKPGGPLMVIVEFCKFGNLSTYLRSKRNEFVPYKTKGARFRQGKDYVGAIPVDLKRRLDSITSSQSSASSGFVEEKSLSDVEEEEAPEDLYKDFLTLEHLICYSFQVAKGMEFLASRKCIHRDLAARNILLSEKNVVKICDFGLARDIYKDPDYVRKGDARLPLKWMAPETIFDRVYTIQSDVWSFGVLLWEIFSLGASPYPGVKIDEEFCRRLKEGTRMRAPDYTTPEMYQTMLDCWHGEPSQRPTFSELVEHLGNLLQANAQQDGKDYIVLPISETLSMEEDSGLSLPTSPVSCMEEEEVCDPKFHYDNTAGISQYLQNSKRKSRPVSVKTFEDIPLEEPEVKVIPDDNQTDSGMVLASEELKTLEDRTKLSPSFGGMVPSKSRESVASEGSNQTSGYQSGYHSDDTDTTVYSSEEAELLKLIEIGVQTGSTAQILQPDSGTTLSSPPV
Protocol: as §1, §2

VEGF-R3 = target: T3, VEGF-R3 (Homo sapiens, UniProt P35916); experiment: radiometric 33PanQinase protein kinase assay; type: biochemical; conditions: for remaining activity at 10 µM: 10 µM compound, residual kinase activity; for IC50: radiometric assay, 1 µM ATP
T3 construct: host or cells: Sf9 (baculovirus)
T3 sequence (P35916 25-1363): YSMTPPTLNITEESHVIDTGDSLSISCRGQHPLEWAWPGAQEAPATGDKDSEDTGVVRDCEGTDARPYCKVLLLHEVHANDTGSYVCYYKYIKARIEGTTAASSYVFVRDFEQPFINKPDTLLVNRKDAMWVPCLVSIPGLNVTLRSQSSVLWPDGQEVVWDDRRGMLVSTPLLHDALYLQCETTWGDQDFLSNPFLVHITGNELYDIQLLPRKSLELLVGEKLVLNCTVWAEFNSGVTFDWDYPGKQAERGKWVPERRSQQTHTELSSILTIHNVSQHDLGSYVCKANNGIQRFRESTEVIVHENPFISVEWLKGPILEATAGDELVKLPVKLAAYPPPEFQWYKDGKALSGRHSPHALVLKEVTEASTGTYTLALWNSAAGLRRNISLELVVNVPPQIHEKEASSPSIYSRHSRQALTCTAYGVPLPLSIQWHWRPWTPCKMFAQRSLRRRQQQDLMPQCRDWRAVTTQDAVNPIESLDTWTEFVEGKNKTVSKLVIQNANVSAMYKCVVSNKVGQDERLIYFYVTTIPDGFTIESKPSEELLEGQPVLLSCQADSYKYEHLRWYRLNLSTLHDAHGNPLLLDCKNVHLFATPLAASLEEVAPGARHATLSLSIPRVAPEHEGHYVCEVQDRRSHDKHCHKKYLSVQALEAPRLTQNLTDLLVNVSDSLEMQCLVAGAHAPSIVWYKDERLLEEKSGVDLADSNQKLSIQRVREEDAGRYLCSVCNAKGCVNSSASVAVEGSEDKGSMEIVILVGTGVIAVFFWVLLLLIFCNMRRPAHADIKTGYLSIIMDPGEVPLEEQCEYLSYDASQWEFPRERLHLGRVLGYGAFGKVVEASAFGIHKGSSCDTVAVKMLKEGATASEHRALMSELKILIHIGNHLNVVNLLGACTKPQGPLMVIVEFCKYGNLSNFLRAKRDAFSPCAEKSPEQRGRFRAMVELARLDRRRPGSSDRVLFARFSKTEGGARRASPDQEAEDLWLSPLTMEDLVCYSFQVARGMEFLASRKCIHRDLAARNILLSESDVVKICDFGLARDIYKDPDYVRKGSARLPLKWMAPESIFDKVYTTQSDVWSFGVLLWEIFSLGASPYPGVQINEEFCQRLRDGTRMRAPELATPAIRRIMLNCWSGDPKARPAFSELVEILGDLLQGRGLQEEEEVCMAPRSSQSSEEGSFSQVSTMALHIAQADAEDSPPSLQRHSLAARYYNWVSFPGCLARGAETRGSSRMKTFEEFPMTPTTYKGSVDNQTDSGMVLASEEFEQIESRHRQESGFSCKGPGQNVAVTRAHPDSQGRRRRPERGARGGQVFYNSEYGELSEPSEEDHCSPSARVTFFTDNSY
Protocol: as §1, §2

Aurora-B = target: T4, Aurora-B (Homo sapiens, UniProt Q96GD4); experiment: radiometric 33PanQinase protein kinase assay; type: biochemical; conditions: for remaining activity at 10 µM: 10 µM compound, residual kinase activity; for IC50: radiometric assay, 1 µM ATP
T4 construct: host or cells: Sf9 (baculovirus)
T4 sequence (Q96GD4 whole entry): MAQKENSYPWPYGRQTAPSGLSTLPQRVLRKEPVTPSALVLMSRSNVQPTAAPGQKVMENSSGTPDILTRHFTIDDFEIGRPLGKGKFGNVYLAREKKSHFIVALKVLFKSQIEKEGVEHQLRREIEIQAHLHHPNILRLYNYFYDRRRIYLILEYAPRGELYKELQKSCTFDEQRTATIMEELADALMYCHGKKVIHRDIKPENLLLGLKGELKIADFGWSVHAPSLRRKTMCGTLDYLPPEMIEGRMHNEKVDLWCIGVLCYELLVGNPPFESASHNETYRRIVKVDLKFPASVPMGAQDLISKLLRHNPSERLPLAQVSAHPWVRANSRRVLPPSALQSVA
Protocol: as §1, §2

| solubility kinetic at 10 s [1] | IC50 (Aurora-A) | remaining activity at 10 µM (VEGF-R2) | remaining activity at 10 µM (VEGF-R3) | remaining activity at 10 µM (Aurora-A) | remaining activity at 10 µM (Aurora-B) | IC50 (VEGF-R2) | IC50 (VEGF-R3) | IC50 (Aurora-B) | SMILES |
| --- | --- | --- | --- | --- | --- | --- | --- | --- | --- |
| 25.3 µM (≈ 13.6 µg/mL) | 4500 nM | – | – | – | – | – | – | – | O=C1CCCc2cc(-c3ccnc(Nc4cccc(OCCCNS(=O)(=O)N5CCCC5)c4)n3)ccc2N1 [Compound 14c, N-{3-[3-((4-(2-Oxo-2,3,4,5-tetrahydro-1H-benzo[b]azepin-7-yl)pyrimidin-2-yl)amino)phenoxy]propyl}-pyrrolidine-1-sulfonamide] |
| 34.2 µM (≈ 18.9 µg/mL) | 820 nM | – | – | – | – | – | – | – | COc1ccc(Nc2nccc(-c3ccc4c(c3)CCCC(=O)N4)n2)cc1OCCCNS(=O)(=O)N1CCC1 [Compound 14g, N-{3-[2-Methoxy-5-((4-(2-oxo-2,3,4,5-tetrahydro-1H-benzo[b]azepin-7-yl)pyrimidin-2-yl)amino)phenoxy]-propyl}azetidine-1-sulfonamide] |
| – | – | 78% | 64% | 73% | 116% | – | – | – | O=C1CCCc2cc(-c3ccnc(Nc4ccccc4Br)n3)ccc2N1 [Compound 2l, 7-[2-(2-Bromoanilino)pyrimidin-4-yl]-1,3,4,5-tetrahydro-2H-1-benzazepin-2-one] |
| – | 1500 nM | – | – | – | – | 2 µM | 3 µM | 20 µM | CCOc1ccc(Nc2nccc(-c3ccc4c(c3)CCCC(=O)N4)n2)cc1 [Compound 2d, 7-[2-(4-Ethoxyanilino)pyrimidin-4-yl]-1,3,4,5-tetrahydro-2H-1-benzazepin-2-one] |
| – | > 100000 nM | – | – | – | – | 11 µM | 35 µM | > 100 µM | O=C1CCCc2cc(-c3ccnc(Nc4ccc([N+](=O)[O-])cc4)n3)ccc2N1 [Compound 2i, 7-[2-(4-Nitroanilino)pyrimidin-4-yl]-1,3,4,5-tetrahydro-2H-1-benzazepin-2-one] |
| – | > 100000 nM | – | – | – | – | 8.4 µM | 19 µM | > 100 µM | O=C1CCCc2cc(-c3ccnc(Nc4ccccc4O)n3)ccc2N1 [Compound 2j, 7-[2-(2-Hydroxyanilino)pyrimidin-4-yl]-1,3,4,5-tetrahydro-2H-1-benzazepin-2-one] |
| – | 1800 nM | – | – | – | – | 1.3 µM | 2.5 µM | 18 µM | COc1ccc(Nc2nccc(-c3ccc4c(c3)CCCC(=O)N4)n2)cc1 [Compound 2c, 7-[2-(4-Methoxyanilino)pyrimidin-4-yl]-1,3,4,5-tetrahydro-2H-1-benzazepin-2-one] |
| – | 9400 nM | – | – | – | – | 11 µM | 19 µM | 40 µM | O=C1CCCc2cc(-c3ccnc(Nc4ccc(Cl)cc4)n3)ccc2N1 [Compound 2f, 7-[2-(4-Chloroanilino)pyrimidin-4-yl]-1,3,4,5-tetrahydro-2H-1-benzazepin-2-one] |
| 25.2 µM (≈ 13.2 µg/mL) | 1500 nM | – | – | – | – | – | – | – | O=C1CCCc2cc(-c3ccnc(Nc4cccc(OCCCNS(=O)(=O)N5CCC5)c4)n3)ccc2N1 [Compound 14d, N-{3-[3-((4-(2-Oxo-2,3,4,5-tetrahydro-1H-benzo[b]azepin-7-yl)pyrimidin-2-yl)amino)phenoxy]propyl}-azetidine-1-sulfonamide] |
| – | 3500 nM | – | – | – | – | 17 µM | 6.2 µM | 52 µM | O=C1CCCc2cc(-c3ccnc(Nc4ccc(I)cc4)n3)ccc2N1 [Compound 2h, 7-[2-(4-Iodoanilino)pyrimidin-4-yl]-1,3,4,5-tetrahydro-2H-1-benzazepin-2-one] |
| 25.3 µM (≈ 13.2 µg/mL) | 1800 nM | – | – | – | – | – | – | – | CN1CCN(CCCOc2cccc(Nc3nccc(-c4ccc5c(c4)CCCC(=O)N5)n3)c2)S1(=O)=O [Compound 14a, 7-{2-[(3-(3-(5-Methyl-1,1-dioxido-1,2,5-thiadiazolidin-2-yl)propoxy)phenyl)amino]pyrimidin-4-yl}-1,3,4,5-tetrahydro-2H-benzo[b]azepin-2-one] |
| – | – | 74% | 72% | 74% | 87% | – | – | – | O=C1CCCc2cc(-c3ccnc(Nc4ccccc4Cl)n3)ccc2N1 [Compound 2k, 7-[2-(2-Chloroanilino)pyrimidin-4-yl]-1,3,4,5-tetrahydro-2H-1-benzazepin-2-one] |
| – | 2400 nM | – | – | – | – | 1.8 µM | 4.3 µM | 16 µM | Cc1ccc(Nc2nccc(-c3ccc4c(c3)CCCC(=O)N4)n2)cc1 [Compound 2b, 7-[2-(4-Toluidino)pyrimidin-4-yl]-1,3,4,5-tetrahydro-2H-1-benzazepin-2-one] |
| – | 3500 nM | – | – | – | – | 5.4 µM | 4.1 µM | 18 µM | O=C1CCCc2cc(-c3ccnc(Nc4ccc(Br)cc4)n3)ccc2N1 [Compound 2g, 7-[2-(4-Bromoanilino)pyrimidin-4-yl]-1,3,4,5-tetrahydro-2H-1-benzazepin-2-one] |

From paper PMC7998669, “7-(2-Anilinopyrimidin-4-yl)-1-benzazepin-2-ones Designed by a “Cut and Glue” Strategy Are Dual Aurora A/VEGF-R Kinase Inhibitors” (Molecules, 2021)
